Source: PubChem BioAssay (NCI)
Where “and” joins values, the source holds several entries; their conditions need not be identical. Identical values can stand only once.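 Results reflect a 48-hour exposure of cells in 96-well plates to compound at five concentrations. GI50: concentration for 50% inhibition of growth. TGI: total growth inhibition.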

Legend:
Experiment in all cases: NCI tumour cell line growth inhibition, 48 h
[1] = test system: SNB-78 CNS
[2] = test system: DMS 114 small cell lung
[3] = test system: M19-MEL melanoma
[4] = test system: MDA-N
[5] = test system: XF 498 CNS
[6] = test system: HOP-18 NSCLC
[7] = test system: DMS 273 small cell lung
[8] = test system: KM20L2 colon
[9] = test system: RXF-631 renal
[10] = test system: SN12K1 renal
[11] = test system: P388/ADR leukemia
[12] = test system: P388 leukemia

Brc1ccccc1C1SCc2nc3ccccc3n21 (stereo not given)
TGI [1]: 83.7 µM
TGI [2]: 94.4 µM
TGI [3]: 34.8 µM

C=C(Br)C(C)(Br)CCC(Br)C(C)(C)Cl (stereo not given)
TGI [4]: 39.8 µM

O=C1NCC2(CCN(CCCC3(c4ccc(F)cc4)OCCO3)CC2)N1c1ccccc1
TGI [4]: > 100 µM

O=c1cc(-c2ccccc2)oc2cc(OCCCOc3ccc4c(=O)cc(-c5ccccc5)oc4c3)ccc12
TGI [1]: > 100 µM
TGI [2]: > 100 µM
TGI [5]: > 100 µM
TGI [6]: > 100 µM
TGI [7]: > 100 µM
TGI [8]: > 100 µM
TGI [3]: > 100 µM

CCOC(=O)NC(=O)c1cn(CCCO)c(=O)[nH]c1=O
TGI [1]: > 100 µM
TGI [2]: > 100 µM
TGI [5]: > 100 µM
TGI [6]: > 100 µM
TGI [9]: > 100 µM
TGI [7]: > 100 µM
TGI [8]: > 100 µM
TGI [3]: > 100 µM

Nc1ncnc2c1nnn2C1OC(CO)C(O)C1O (stereo not given)
TGI [10]: 9.58 µM
TGI [1]: > 100 µM
TGI [11]: 26.7 µM
TGI [2]: 17.1 µM
TGI [5]: 47.3 µM
TGI [6]: 11.8 µM
TGI [7]: 13.6 µM
TGI [8]: > 74.3 µM
TGI [3]: 39.2 µM
TGI [12]: 16.1 µM

CCOC(=O)c1cc2nc3ccccc3c(=O)n2c2ccccc12
TGI [4]: > 10 µM

CCOC(=O)CC(=O)ON(C)C(C)=O
TGI [1]: > 100 µM
TGI [2]: > 100 µM
TGI [5]: > 100 µM
TGI [8]: > 100 µM
TGI [3]: > 100 µM

Cc1ccc(NC(=O)c2cc3cc(N=Nc4ccccc4C(=O)O)ccc3oc2=O)cc1
TGI [2]: 94.3 µM
TGI [5]: 85.8 µM
TGI [6]: > 100 µM
TGI [7]: > 100 µM
TGI [8]: > 100 µM

N#CC(C#N)=CNC(N)=S
TGI [4]: > 100 µM

CCOC(=O)C(=C=C=C(c1ccccc1)c1ccccc1)C(=O)OCC
TGI [1]: 37 µM
TGI [2]: 40.1 µM
TGI [5]: 30.3 µM
TGI [9]: 77 µM
TGI [7]: 45.5 µM
TGI [8]: 45.2 µM
TGI [3]: 37.7 µM

O=[N+]([O-])C(/C=C(\Cl)n1nnc2ccccc21)=C(/Cl)n1nnc2ccccc21
TGI [4]: > 100 µM

Cc1ccc(S(=O)(=O)Nc2ccccc2C(=O)c2ccc(C)c(C)c2)cc1
TGI [4]: > 100 µM

CCN1c2ccccc2C(C(SC)S(=O)(=O)c2ccc(C)cc2)c2c1[nH]c(=O)n(C)c2=O (stereo not given)
TGI [1]: > 100 µM
TGI [2]: > 100 µM
TGI [5]: > 100 µM
TGI [6]: > 100 µM
TGI [7]: > 100 µM
TGI [3]: > 100 µM

CC1(C)C2CCC(=O)C1CC2 (stereo not given)
TGI [4]: > 100 µM

CCc1cc(Cc2cc(CC)c(NC(=O)C(=O)Cc3ccccn3)c(CC)c2Cl)c(Cl)c(CC)c1NC(=O)C(=O)Cc1ccccn1
TGI [1]: > 100 µM
TGI [2]: > 100 µM
TGI [5]: > 100 µM
TGI [6]: > 100 µM
TGI [7]: > 100 µM
TGI [8]: > 100 µM
TGI [3]: > 100 µM

COC(OC)C(C)CC(=O)N(C)C (stereo not given)
TGI [1]: > 100 µM
TGI [2]: > 100 µM
TGI [5]: > 100 µM
TGI [7]: > 100 µM
TGI [8]: > 100 µM
TGI [3]: > 100 µM

N=Nc1c(OC(=O)Nc2cccc(Cl)c2)[nH]c2ccccc12
TGI [4]: 10.1 µM

Clc1ccc(C(c2ccc(Cl)cc2)c2ccccn2)cc1
TGI [1]: > 100 µM
TGI [2]: > 100 µM
TGI [5]: 34.8 µM
TGI [6]: 46.6 µM
TGI [8]: 29.8 µM
TGI [3]: > 100 µM

CC(=O)OC1COC(n2ccc3cc(Br)c([N+](=O)[O-])cc32)C(OC(C)=O)C1OC(C)=O (stereo not given)
TGI [1]: 84.6 µM
TGI [2]: 94.1 µM
TGI [5]: 30.5 µM
TGI [9]: 58.8 µM
TGI [7]: > 100 µM
TGI [8]: > 100 µM
TGI [3]: > 100 µM

Cn1cnc([N+](=O)[O-])c1Sc1nc2ccccc2[nH]1
TGI [1]: 88 µM
TGI [2]: 21.7 µM
TGI [5]: 18.5 µM
TGI [6]: > 100 µM
TGI [7]: 3.43 µM
TGI [8]: 61.5 µM
TGI [3]: 29.7 µM

COc1cc(OC)cc(-c2cc(=O)c3c(OC)c(OC)c(OC)c(OC)c3o2)c1
TGI [4]: > 100 µM

C/C(=N\NC(=S)NC(CCC(=O)O)C(=O)O)c1ccccn1 (stereo not given)
TGI [1]: > 100 µM
TGI [2]: > 100 µM
TGI [5]: > 100 µM
TGI [6]: > 100 µM
TGI [9]: > 100 µM
TGI [8]: > 100 µM
TGI [3]: > 100 µM

Cc1ccccc1S(=O)(=O)OC1NS(=O)(=O)c2ccccc21 (stereo not given)
TGI [4]: > 100 µM

CC(=O)/C(=C\c1cccc([N+](=O)[O-])c1)C(=O)Nc1ccccc1C
TGI [1]: > 100 µM
TGI [2]: > 100 µM
TGI [5]: > 100 µM
TGI [6]: > 100 µM
TGI [8]: > 100 µM
TGI [3]: > 100 µM

C#CC1(O)CCC2C3CCc4cc(Oc5nc(F)nc(-c6c7ccccc7c7sc8ccccc8n67)n5)ccc4C3CC[C@@]21C (stereo not given in full)
TGI [5]: > 100 µM
TGI [7]: > 100 µM
TGI [8]: > 100 µM
TGI [3]: > 100 µM

CC(C)=Cc1cc(C(=O)Nc2ccc(Cl)c(Cl)c2)nc(N)n1
TGI [1]: > 100 µM
TGI [2]: > 100 µM
TGI [5]: > 100 µM
TGI [6]: > 100 µM
TGI [9]: > 100 µM
TGI [7]: > 100 µM
TGI [8]: > 100 µM
TGI [3]: > 100 µM

COc1cc2c(c(OC)c1OC)-c1ccc(OC)c(=O)cc1C(NC(=O)c1ccc(N=[N+]=[N-])cc1)CC2 (stereo not given)
TGI [1]: > 100 µM
TGI [2]: 0.0656 µM
TGI [6]: > 100 µM
TGI [8]: 0.0351 µM
TGI [3]: > 73.2 µM

CC(C)OP(=O)(OC(C)C)C(=NCCN=C(NNc1ccc([N+](=O)[O-])cc1)P(=O)(OC(C)C)OC(C)C)NNc1ccc([N+](=O)[O-])cc1
TGI [2]: > 100 µM
TGI [5]: 9.04 µM
TGI [7]: > 100 µM
TGI [8]: > 100 µM
TGI [3]: > 100 µM

Cn1c2ccccc2c2cc(-c3ccccc3)c3c(c21)C(=O)c1ccccc1C3=O
TGI [1]: 54.3 µM
TGI [2]: 33.6 µM
TGI [5]: 39.7 µM
TGI [9]: > 100 µM
TGI [7]: 44.9 µM
TGI [3]: 6.47 µM

CCCCCCCCC/C=C1\CCC(CN2CCOCC2)C1=O (stereo not given)
TGI [1]: 15.3 µM
TGI [2]: 7.42 µM
TGI [6]: 10.7 µM
TGI [9]: 18.2 µM
TGI [7]: 5.08 µM
TGI [8]: 20.5 µM
TGI [4]: 12.7 µM
TGI [3]: 10.4 µM

COc1cc(NCc2ccc3oc(=O)c(-c4ccccc4)nc3c2)cc(OC)c1OC
TGI [4]: > 10 µM

[Cl-].[La+3].[O-]/N=C(\c1ccccc1)c1ccccn1.[O-]/N=C(\c1ccccc1)c1ccccn1.[O-]/N=C(\c1ccccc1)c1ccccn1
GI50 [1]: > 90.8 µM
TGI [1]: > 100 µM
GI50 [2]: 30.8 µM
TGI [2]: > 100 µM
GI50 [6]: 31.3 µM
TGI [6]: > 100 µM
GI50 [7]: 31.3 µM
TGI [7]: > 100 µM
GI50 [8]: 46.2 µM
TGI [8]: > 100 µM
GI50 [3]: 22 µM
TGI [3]: 50 µM

COc1ccc(S(=O)(=O)NNS(C)(=O)=O)cc1
TGI [2]: > 100 µM
TGI [5]: > 100 µM
TGI [9]: > 100 µM
TGI [7]: > 100 µM
TGI [8]: > 100 µM
TGI [3]: > 100 µM

CN(C)CCSC1=Nc2ccc(Cl)cc2C(c2ccccc2Cl)=NC1
GI50 [4]: 11.8 µM and 25.1 µM
TGI [4]: 25.8 µM and 89.1 µM

CCN(CC)/C(SCc1ccccc1)=C(\C(Cl)=C(Cl)Cl)[N+](=O)[O-]
TGI [4]: 33.8 µM

NC1(C(=O)OCc2ccccc2)CCCC1
TGI [4]: 49.6 µM

OC(c1nc2ccccc2[nH]1)C(O)C(O)C(O)c1nc2ccccc2[nH]1 (stereo not given)
TGI [4]: > 100 µM

CSc1nc(NC2OCC(OC(C)=O)C(OC(C)=O)C2OC(C)=O)c(N=CC=Nc2c(NC3OCC(OC(C)=O)C(OC(C)=O)C3OC(C)=O)nc(SC)[nH]c2=O)c(=O)[nH]1 (stereo not given)
TGI [1]: > 100 µM
TGI [2]: > 100 µM
TGI [6]: > 100 µM
TGI [9]: > 100 µM
TGI [7]: > 100 µM
TGI [8]: > 100 µM
TGI [4]: > 100 µM
TGI [3]: > 100 µM

COc1c(Cl)c(=O)oc2ccc(Cl)cc12
TGI [4]: > 100 µM

COC(=O)C1=C(C)NC(C)=C(C(=O)OCCCN2CCC(c3ccccc3)(c3ccccc3)CC2)C1c1cccc([N+](=O)[O-])c1 (stereo not given)
TGI [4]: 3.89 µM

CN(C)c1nc(=Nc2ccc(N=c3nc(N(C)C)ss3)cc2)ss1
TGI [1]: 38.5 µM
TGI [2]: 38.1 µM
TGI [6]: > 100 µM
TGI [9]: 38.8 µM
TGI [7]: > 64 µM
TGI [8]: > 100 µM
TGI [3]: 40.1 µM

O=C(/C=C\c1ccc(Cl)c(Cl)c1)c1ccc(Cl)cc1Cl
TGI [9]: > 100 µM
TGI [7]: 34.8 µM
TGI [8]: 28 µM
TGI [3]: 81.1 µM

c1ccc(COc2cccc3ccc[n+](Cc4ccccc4)c23)cc1
TGI [2]: 14.6 µM
TGI [5]: 31.4 µM
TGI [6]: 15.4 µM
TGI [9]: > 100 µM
TGI [7]: 17.7 µM
TGI [8]: 93.8 µM
TGI [3]: 16.3 µM
